IC50 data for two compounds are collected here from US20100144786A1, “QUINOLINE DERIVATIVES AS CRTH2 RECEPTOR LIGANDS” (priority 2007, published 2010).

This assay deals with T1, CRTH2 receptor (Homo sapiens, UniProt Q9Y5Y4).
T1 construct: expressed in transfected cells; host or cells: Human embryonic kidney (HEK) cells, membranes
T1 sequence (Q9Y5Y4 1-395): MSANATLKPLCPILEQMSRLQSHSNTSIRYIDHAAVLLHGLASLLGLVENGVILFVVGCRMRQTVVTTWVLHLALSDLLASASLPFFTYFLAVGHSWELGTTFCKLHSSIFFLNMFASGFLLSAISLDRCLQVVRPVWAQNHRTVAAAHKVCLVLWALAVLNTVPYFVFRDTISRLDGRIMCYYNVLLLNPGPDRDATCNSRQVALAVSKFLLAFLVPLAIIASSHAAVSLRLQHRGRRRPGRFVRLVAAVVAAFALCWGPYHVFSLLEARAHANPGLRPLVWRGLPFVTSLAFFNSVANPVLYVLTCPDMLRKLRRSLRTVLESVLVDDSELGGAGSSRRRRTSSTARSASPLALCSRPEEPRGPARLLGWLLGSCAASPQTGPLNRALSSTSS
Description: CRTH2 radioligand binding assay ([3H]-PGD2 displacement, SPA). To be noted: HEK cell membranes expressing the CRTH2 receptor, 1 nM [3H]-PGD2. The protocol:
Compounds of the invention were tested using the following biological test methods to determine their ability to displace PGD2 from the CRTH2 receptor and for their ability to antagonise the functional effects of PGD2 at the CRTH2 receptor.
The receptor binding assay is performed in a final volume of 200 μl binding buffer [10 mM BES (pH 7.4), 1 mM EDTA, 10 mM manganese chloride, 0.01% BSA] and 1 nM [^3H]-PGD2 (Amersham Biosciences UK Ltd). Ligands are added in assay buffer containing a constant amount of DMSO (1% by volume). Total binding is determined using 1% by volume of DMSO in assay buffer and non-specific binding is determined using 10 μM of unlabeled PGD2 (Sigma). Human embryonic kidney (HEK) cell membranes (3.5 μg) expressing the CRTH2 receptor are incubated with 1.5 mg wheatgerm agglutinin SPA beads and 1 nM [^3H]-PGD2 (Amersham Biosciences UK Ltd) and the mixture incubated for 3 hours at room temperature. Bound [^3H]-PGD2 is detected using a Microbeta TRILUX liquid scintillation counter (Perkin Elmer). Compound IC50 value is determined using a 6-point dose response curve in duplicate with a semi-log compound dilution series. IC50 calculations are performed using Excel and XLfit (Microsoft), and this value is used to determine a Ki value for the test compound using the Cheng-Prusoff equation.

`CCc1nc2c(F)ccc(OCC(=O)O)c2c(OC(F)F)c1Cc1ccc(Br)cc1` [Example 2, [3-(4-bromobenzyl)-4-difluoromethoxy-2-ethyl-8-fluoroquinolin-5-yloxy]acetic acid]: the IC50 was 7.5 nM.
In turn, `CCc1nc2c(F)ccc(OCC(=O)O)c2c(OC(F)F)c1Cc1ccc(C#N)cc1` [Example 1, [3-(4-cyanobenzyl)-4-difluoromethoxy-2-ethyl-8-fluoroquinolin-5-yloxy]acetic acid] returned an IC50 of 6.1 nM.

One may read the IC50 as the concentration at which inhibition is half-maximal. A higher IC50 goes with lower potency.
